The record followed here is paper PMC4854315, “Discovery of a novel allosteric inhibitor-binding site in ERK5: comparison with the canonical kinase hinge ATP-binding site” (Acta Crystallographica. Section D, Structural Biology, 2016).

What all share (test): Z'-LYTE kinase panel
Common to all, as to type: biochemical

One experiment has as its target T1, PDGFRB (PDGFR beta) (Homo sapiens, UniProt P09619).
T1 construct: purchased ThermoFisher (SelectScreen, Z'-LYTE)
In short, it runs like this: (§1)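 Standard Z′-LYTE protocol applied. Compound fixed at 10 µM. Output: % inhibition. Panel size 225 kinases.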

The next experiment has as its target T2, STK22D (TSSK1) (Homo sapiens, UniProt Q9BXA7).
T2 construct: purchased ThermoFisher (SelectScreen, Z'-LYTE)
T2 sequence (Q9BXA7 1-367): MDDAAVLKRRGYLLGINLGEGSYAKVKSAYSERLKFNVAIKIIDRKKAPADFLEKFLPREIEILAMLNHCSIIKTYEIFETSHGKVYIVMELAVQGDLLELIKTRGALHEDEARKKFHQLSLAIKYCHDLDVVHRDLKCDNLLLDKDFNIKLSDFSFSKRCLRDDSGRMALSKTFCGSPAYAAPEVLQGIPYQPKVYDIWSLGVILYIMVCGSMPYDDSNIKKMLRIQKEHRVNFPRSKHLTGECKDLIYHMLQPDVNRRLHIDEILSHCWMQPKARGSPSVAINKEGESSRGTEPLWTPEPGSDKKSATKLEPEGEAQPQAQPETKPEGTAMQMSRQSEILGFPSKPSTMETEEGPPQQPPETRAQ
In short, it runs like this: as §1

A further experiment concerns the target T3, CDK5/p25 (Homo sapiens, UniProt Q00535).
T3 construct: purchased ThermoFisher (SelectScreen, Z'-LYTE)
The method in brief:
as §1

A further experiment concerns the target T4, MATK (HYL) (Homo sapiens, UniProt P42679).
T4 construct: purchased ThermoFisher (SelectScreen, Z'-LYTE)
T4 sequence (P42679 1-507): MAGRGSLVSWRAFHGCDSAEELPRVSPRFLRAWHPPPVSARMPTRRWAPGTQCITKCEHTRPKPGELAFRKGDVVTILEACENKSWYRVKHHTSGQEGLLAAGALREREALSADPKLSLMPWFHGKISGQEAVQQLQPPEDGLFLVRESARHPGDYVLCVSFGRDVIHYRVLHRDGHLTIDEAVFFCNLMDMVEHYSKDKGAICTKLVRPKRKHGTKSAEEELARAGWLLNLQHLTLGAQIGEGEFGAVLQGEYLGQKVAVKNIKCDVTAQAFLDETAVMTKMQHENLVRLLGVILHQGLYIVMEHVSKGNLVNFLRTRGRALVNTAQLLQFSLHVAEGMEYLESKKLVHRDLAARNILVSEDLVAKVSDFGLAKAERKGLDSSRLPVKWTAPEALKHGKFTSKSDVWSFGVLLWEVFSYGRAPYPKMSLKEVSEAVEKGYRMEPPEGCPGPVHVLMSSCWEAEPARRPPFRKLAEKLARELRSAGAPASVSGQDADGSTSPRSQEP
In short, it runs like this:
as §1

The target of another experiment is T5, ADRBK2 (GRK3) (Homo sapiens, UniProt P35626).
T5 construct: purchased ThermoFisher (SelectScreen, Z'-LYTE)
T5 sequence (P35626 1-688): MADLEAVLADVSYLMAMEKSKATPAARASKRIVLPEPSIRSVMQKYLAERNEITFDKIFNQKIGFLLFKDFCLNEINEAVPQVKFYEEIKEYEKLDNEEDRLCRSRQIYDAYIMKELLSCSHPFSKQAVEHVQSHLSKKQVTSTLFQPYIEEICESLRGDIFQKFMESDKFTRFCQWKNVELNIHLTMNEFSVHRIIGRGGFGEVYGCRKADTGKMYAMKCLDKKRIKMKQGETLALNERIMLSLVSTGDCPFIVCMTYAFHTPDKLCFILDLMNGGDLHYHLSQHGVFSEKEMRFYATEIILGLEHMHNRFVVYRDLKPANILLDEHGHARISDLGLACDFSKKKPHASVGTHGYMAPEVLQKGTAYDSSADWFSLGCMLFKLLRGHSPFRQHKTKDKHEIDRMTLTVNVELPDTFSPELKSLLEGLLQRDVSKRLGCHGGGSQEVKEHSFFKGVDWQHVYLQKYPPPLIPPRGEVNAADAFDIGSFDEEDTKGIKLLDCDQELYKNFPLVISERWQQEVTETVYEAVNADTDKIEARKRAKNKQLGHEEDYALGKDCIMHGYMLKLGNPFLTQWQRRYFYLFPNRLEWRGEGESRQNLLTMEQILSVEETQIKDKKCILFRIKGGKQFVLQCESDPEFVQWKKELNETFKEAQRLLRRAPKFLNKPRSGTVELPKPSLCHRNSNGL
The method in brief:
as §1

In another experiment the target is T6, PRKCA (PKC alpha) (Homo sapiens, UniProt P17252).
T6 construct: purchased ThermoFisher (SelectScreen, Z'-LYTE)
The method in brief:
as §1

A further experiment has as its target T7, PTK6 (Brk) (Homo sapiens, UniProt Q13882).
T7 construct: purchased ThermoFisher (SelectScreen, Z'-LYTE)
In short, it runs like this: as §1

In general, inhibition refers to the drop in the measured response relative to a control, in per cent.

T3 sequence (Q00535 whole entry): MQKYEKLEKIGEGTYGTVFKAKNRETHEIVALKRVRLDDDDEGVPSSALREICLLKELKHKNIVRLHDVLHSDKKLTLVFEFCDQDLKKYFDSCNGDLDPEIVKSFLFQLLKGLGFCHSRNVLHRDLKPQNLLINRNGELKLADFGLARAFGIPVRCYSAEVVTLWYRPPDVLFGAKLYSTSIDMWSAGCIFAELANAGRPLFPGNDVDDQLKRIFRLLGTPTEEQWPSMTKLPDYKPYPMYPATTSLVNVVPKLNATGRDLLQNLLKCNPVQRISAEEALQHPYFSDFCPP
T3 sequence (Q15078 99-307 partner limits assumed): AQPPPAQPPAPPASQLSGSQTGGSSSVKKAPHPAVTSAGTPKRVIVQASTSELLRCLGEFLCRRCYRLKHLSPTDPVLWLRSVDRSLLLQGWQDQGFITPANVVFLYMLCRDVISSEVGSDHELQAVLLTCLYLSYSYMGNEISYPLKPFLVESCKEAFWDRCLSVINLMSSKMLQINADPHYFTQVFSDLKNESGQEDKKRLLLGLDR
T1 sequence (P09619 33-1106): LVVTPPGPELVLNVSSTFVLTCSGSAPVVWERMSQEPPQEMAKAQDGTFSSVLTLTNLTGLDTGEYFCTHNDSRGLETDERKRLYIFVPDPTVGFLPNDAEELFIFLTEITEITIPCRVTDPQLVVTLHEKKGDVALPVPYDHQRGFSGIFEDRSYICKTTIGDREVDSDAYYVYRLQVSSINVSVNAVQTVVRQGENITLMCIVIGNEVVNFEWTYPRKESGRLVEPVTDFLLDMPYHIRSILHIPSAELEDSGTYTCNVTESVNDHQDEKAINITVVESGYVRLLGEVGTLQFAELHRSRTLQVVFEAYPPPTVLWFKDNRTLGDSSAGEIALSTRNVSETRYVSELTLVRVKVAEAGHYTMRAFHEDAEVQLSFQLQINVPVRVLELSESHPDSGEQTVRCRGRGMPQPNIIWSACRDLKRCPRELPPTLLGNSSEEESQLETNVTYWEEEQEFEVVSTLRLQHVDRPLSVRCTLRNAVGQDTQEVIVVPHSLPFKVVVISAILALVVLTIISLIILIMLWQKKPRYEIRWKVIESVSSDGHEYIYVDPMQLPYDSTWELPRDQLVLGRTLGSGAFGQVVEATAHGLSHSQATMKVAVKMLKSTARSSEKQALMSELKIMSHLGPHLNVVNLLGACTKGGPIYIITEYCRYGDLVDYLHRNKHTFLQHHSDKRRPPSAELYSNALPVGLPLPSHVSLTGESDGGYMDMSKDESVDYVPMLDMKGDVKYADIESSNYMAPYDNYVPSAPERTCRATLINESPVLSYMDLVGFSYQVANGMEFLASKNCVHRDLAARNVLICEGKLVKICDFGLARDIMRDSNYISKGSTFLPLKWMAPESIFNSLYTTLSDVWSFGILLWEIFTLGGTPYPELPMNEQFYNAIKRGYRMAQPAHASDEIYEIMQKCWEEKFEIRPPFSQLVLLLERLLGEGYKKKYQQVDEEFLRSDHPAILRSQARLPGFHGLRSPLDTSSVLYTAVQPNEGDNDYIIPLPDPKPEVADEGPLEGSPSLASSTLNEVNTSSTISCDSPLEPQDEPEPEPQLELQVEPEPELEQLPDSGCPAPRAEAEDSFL
T7 sequence (Q13882 whole entry): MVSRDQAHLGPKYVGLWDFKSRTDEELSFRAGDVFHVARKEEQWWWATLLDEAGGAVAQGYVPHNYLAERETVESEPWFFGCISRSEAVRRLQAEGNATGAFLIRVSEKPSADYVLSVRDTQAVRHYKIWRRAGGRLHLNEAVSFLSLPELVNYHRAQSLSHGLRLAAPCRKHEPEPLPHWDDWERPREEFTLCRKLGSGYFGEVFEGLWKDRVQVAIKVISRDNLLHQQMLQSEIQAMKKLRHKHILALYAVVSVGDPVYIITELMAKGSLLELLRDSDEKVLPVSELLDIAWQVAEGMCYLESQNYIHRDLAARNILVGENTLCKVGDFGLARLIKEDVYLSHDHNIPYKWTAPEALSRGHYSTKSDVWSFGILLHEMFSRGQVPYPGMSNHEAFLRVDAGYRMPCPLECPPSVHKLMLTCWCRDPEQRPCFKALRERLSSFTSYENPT

As to `Cc1ncc(-c2nc(Nc3ccc(C(=O)NCCN4CCCCC4)cc3)ncc2F)n1C(C)C` [Compound 3], the inhibition at 10 µM on PDGFRB (PDGFR beta) is 87%; against STK22D (TSSK1), 81%; on CDK5/p25, 99%; on MATK (HYL), 0.522%; against ADRBK2 (GRK3), 0.689%; against PRKCA (PKC alpha), 102%. For the same molecule, the inhibition at 10 µM at PTK6 (Brk) was determined as 61%.
Consider `Cc1cc(Nc2nc(N)nn2C(=O)NC(C)C)ccc1Cl` [Compound 5], for which the inhibition at 10 µM is 10% against PDGFRB (PDGFR beta); 21% at STK22D (TSSK1); 77% against CDK5/p25; -1.63% against MATK (HYL); -7% on ADRBK2 (GRK3); 7% against PRKCA (PKC alpha). On PTK6 (Brk), the inhibition at 10 µM was 5.47%.
Take “XMD8-92 [Compound 2, reference compound]”: the “PDGFRB (PDGFR beta) % Inhibition” value on PDGFRB (PDGFR beta) (10 µM compound, ATP Km app) is given as 7%. Also, the “STK22D (TSSK1) % Inhibition” value on STK22D (TSSK1) (10 µM compound, ATP Km app) was found to be 11%. Further, at CDK5/p25 (10 µM compound, ATP Km app), the “CDK5/p25 % Inhibition” value is recorded as 38%. Also, the “MATK (HYL) % Inhibition” value on MATK (HYL) (10 µM compound, ATP Km app) is 2.46%. Further, the “ADRBK2 (GRK3) % Inhibition” value on ADRBK2 (GRK3) (10 µM compound, ATP Km app) was -7%. Also, on PRKCA (PKC alpha) (10 µM compound, ATP Km app), the “PRKCA (PKC alpha) % Inhibition” value is reported as 47%. Also, the “PTK6 (Brk) % Inhibition” value on PTK6 (Brk) (10 µM compound, ATP Km app) was determined as 14%.
